Test results taken from publication PMC7440923, “Measuring protein stability in the GroEL chaperonin cage reveals massive destabilization” (eLife, 2020).

B1: DHFRMp fused to eGFP (chimera), free in bulk solution (Moritella profunda) (protein)
chain: MIVSMIAALANNRVIGLDNKMPWHLPAELQLFKRATLGKPIVMGRNTFESIGRPLPGRLNIVLSRQTDYQPEGVTVVATLEDAVVAAGDVEELMIIGGATIYNQCLAAADRLYLTHIELTTEGDTWFPDYEQYNWQEIEHESYAADDKNPHNYRFSLLERVK
notes: N-terminal His7-eGFP (A206K)-linker with TEV site-DHFRMp at the C-terminus; fusion uncut; E. coli BL21; not encapsulated
B2: GroES (natural protein, Escherichia coli, UniProt P0A6F9 1-97, looked up)
chain: MNIRPLHDRVIVKRKEVETKSAGGIVLTGSAAAKSTRGEVLAVGNGRILENGEVKPLDVKVGDIVIFNDGYGVKSEKIDNEEVLIMSESDILAIVEA
notes: GroES, co-factor of GroEL in the Escherichia coli GroE system; used as 'GroES oligomer'; Expression and purification of GroES are not described; also called GroES oligomer

What was measured:
[1] = target: T1, DHFRMp fused to eGFP (chimera), free in bulk solution (Moritella profunda, UniProt Q70YQ6); test: differential scanning fluorimetry, SYPRO Orange; format: binding; settings: 500 µM ligand, 5 µM chimera, working buffer pH 8.0; transition of the DHFRMp part
T1 construct: gene dyrA; N-terminal His7-eGFP (A206K)-linker with TEV site-DHFRMp at the C-terminus; fusion uncut; E. coli BL21; not encapsulated

[2] = substrate: Nc1nc2c(c(=O)[nH]1)N=C(CNc1ccc(C(=O)N[C@@H](CCC(=O)O)C(=O)O)cc1)CN2; test: purified protein; format: biochemical, Moritella profunda; settings: 350 µM NADPH, 23 °C, working buffer (20 mM Hepes pH 8.0, 100 mM KCl, 50 mM MgCl2, 50 mM Na2SO4, 10 mM NaF, 1 mM BeSO4, 1 mM DTT), free chimera in bulk solution
[3] = target: T2, GroEL (Escherichia coli, UniProt P0A6F5 1-548); test: SEC; freshly assembled football complexes: acid-denatured eGFP added to GroEL and GroES oligomers in folding buffer, assembly started with Na2SO4, NaF, BeSO4 and ATP; gel-filtration in working buffer (20 mM Hepes pH 8.0, 100 mM KCl, 50 mM MgCl2, 50 mM Na2SO4, 10 mM NaF, 1 mM BeSO4, 1 mM DTT); A280 and A485, fractions by SDS-PAGE; settings: both partners purified
T2 construct: GroEL chaperonin of the Escherichia coli GroE system; used as 'GroEL oligomer'; Expression and purification of GroEL are not described; also called GroEL oligomer
T2 sequence (P0A6F5 whole entry): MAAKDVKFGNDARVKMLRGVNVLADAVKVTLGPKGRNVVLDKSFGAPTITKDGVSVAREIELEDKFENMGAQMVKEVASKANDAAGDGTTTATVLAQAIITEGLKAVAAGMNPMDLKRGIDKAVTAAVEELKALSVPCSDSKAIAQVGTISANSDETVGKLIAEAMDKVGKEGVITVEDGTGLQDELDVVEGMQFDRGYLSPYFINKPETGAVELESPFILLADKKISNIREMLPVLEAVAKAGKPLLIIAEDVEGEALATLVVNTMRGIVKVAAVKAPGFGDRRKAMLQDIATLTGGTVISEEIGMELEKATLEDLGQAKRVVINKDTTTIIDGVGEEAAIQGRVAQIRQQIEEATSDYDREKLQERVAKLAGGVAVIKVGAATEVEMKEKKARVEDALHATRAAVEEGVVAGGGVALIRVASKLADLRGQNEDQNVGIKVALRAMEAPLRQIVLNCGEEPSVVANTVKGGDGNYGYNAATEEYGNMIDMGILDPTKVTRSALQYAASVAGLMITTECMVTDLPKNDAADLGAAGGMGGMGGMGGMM

Row | Molecule | increase in melting temperature (dTm) [1] | further results
1 | NC(=O)C1=CN([C@@H]2O[C@H](COP(=O)(O)OP(=O)(O)OC[C@H]3O[C@@H](n4cnc5c(N)ncnc54)[C@H](OP(=O)(O)O)[C@@H]3O)[C@@H](O)[C@H]2O)C=CC1 [NADPH] | ~ 8 °C | 
2 | Nc1nc2c(c(=O)[nH]1)N=C(CNc1ccc(C(=O)N[C@@H](CCC(=O)O)C(=O)O)cc1)CN2 [dihydrofolate] | ~ 31 °C | 
3 | B1 |  | Km [2]: 33 (±2) µM
4 | B2 |  | binding result [3]: binds
